This series can be described thus: Preliminary studies of ribociclib succinate in oral solutions: pH, solubility, preservatives. From the text:
To achieve a clear solution of ribociclib succinate upon reconstitution, sufficient quantity of acid is needed to adjust the pH of the liquid into an acidic range for ribociclib succinate to completely solubilize. For use in the present invention, suitable solubilizers are in the form of an acid.

The mark [1] stands for this setting: oral solutions of ribociclib succinate.

From patent US20250108053A1, “RIBOCICLIB PHARMACEUTICAL COMPOSITIONS” (Novartis AG, priority 2022, published 2025) come the findings set out here.

For `C/C=C/C=C/C(=O)[O-].[K+]` [potassium sorbate], the “pH required by the preservative” value under setting [1] was “about 3.5”.
Turning to `CN(C)C(=O)c1cc2cnc(Nc3ccc(N4CCNCC4)cn3)nc2n1C1CCCC1.O=C(O)CCC(=O)O` [ribociclib succinate], the “Solubility in basic pH as compared to acidic pH” value was “limited solubility in basic pH”. Moreover, under “ribociclib succinate in oral solutions”, the “pH range in which a clear solution was achieved” value is 3.5-4.5.
In the case of `O=C([O-])c1ccccc1.[Na+]` [sodium benzoate], the “Observation in oral solution formulations with the preservative” value under setting [1] is “precipitation was observed”.
